Measured values from US10118926B2, “Tricyclic quinoline and quinoxaline derivatives” (AbbVie Deutschland GmbH & Co. KG, priority 2012, dated 2018).
pEC50: −log10 of the molar value. Structures can show the parent of a compound that is named as a salt.

Target: T1, 5-HT2C receptor (Homo sapiens, UniProt P28335)
T1 construct: β-galactosidase enzyme-complementation fragment (ProLink-type donor); host or cells: U2OS
Assay: Functional activity: beta-arrestin2 recruitment to the 5-HT2C receptor in U2OS_HTR2C_β-Arrestin cells (DiscoverX)
Type: cell-based
Conditions: for % efficacy / Emax: relative efficacy: response as percentage of response to 10 μM 5-HT or maximal effect induced by 5-HT (defined as 100%); for pEC50: U2OS_HTR2C_β-Arrestin cells, 1.5 h incubation, chemiluminescent β-galactosidase complementation readout, read-out: Potency (EC50) in functional assay
Experimental: The functional activity of compounds of formula I was assayed by incubation with U2OS_HTR2C_β-Arrestin cells (DiscoverX, 93-0289C3) to induce beta-arrestin2 recruitment to the 5-HT2C receptor. The agonist-induced recruitment and proximity of the receptor and beta-arrestin2 leads to complementation and formation of active β-galactosidase. The enzyme complementation results in enzyme activity, which is measured following the termination of the agonist incubation using DiscoveRx's detection reagent, which contains a chemiluminescent substrate which produces a high intensity signal. Cells were plated and a medium-change to a 1% serum containing medium was performed 24 h later. The next day, test compounds were added and incubated for 1.5 h before addition of detection reagent.
The response produced was measured and compared with the response produced by 10 [mu]M 5-HT or the maximal effect induced by 5-HT (defined as 100%) to which it was expressed as a percentage response (relative efficacy). Dose response curves were constructed using Graphpad Prism (Graph Software Inc.) or using in house adapted software using a 4 parameter dose response model with variable slope (fit=(Bottom+(Top−Bottom)/(1+10^((Log EC50−x)*HillSlope))res=(y−fit)). Results are compiled in the table below.

T1 sequence (P28335 33-458): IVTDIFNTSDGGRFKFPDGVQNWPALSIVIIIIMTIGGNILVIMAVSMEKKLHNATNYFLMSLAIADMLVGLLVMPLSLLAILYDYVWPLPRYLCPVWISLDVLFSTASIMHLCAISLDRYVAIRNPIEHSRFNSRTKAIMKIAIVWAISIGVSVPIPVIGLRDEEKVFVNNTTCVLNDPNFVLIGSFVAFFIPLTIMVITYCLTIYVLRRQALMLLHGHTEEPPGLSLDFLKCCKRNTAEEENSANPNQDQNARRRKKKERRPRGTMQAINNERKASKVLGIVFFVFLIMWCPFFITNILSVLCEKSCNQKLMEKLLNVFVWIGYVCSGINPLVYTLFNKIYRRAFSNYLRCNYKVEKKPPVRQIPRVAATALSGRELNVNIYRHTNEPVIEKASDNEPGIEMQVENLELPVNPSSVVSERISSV
T1 sequence (P32121 whole entry partner, the tested form may be a part): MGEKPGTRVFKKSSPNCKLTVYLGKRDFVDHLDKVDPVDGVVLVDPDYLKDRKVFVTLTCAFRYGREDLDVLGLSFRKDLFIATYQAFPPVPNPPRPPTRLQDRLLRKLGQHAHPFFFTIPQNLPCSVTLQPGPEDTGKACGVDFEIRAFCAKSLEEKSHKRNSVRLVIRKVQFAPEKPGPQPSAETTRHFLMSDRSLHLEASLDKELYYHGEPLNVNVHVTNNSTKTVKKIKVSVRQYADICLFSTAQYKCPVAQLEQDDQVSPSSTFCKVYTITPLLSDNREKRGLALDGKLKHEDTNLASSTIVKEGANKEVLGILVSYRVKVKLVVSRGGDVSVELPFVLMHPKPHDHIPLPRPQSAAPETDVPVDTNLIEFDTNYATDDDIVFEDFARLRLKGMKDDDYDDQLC

Compound	% efficacy	pEC50	Emax
CC1(C(F)(F)F)CCN2CCNCc3cccc1c32 (single isomer, unassigned) [Example 8, 8-Methyl-8-(trifluoromethyl)-2,3,4,6,7,8-hexahydro-1H-[1,4]diazepino [6,7,1-ij]quinoline]	40%		
CC1(C(F)(F)F)CCN2CCNCc3cccc1c32 (single isomer, unassigned) [Example 9, 8-Methyl-8-(trifluoromethyl)-2,3,4,6,7,8-hexahydro-1H-[1,4]diazepino [6,7,1-ij]quinoline]	61%		
CC1CN2CCNCc3cccc(c32)C1(C)C (single isomer, unassigned) [Example 27, Enantiomer of 7,8,8-trimethyl-1,2,3,4,7,8-hexahydro-6H-[1,4]diazepino[6,7,1-ij]quinoline]]	87%		
CC1CN2CCNCc3cccc(c32)C1(C)C (single isomer, unassigned) [Example 28, Enantiomer of 7,8,8-trimethyl-1,2,3,4,7,8-hexahydro-6H-[1,4]diazepino[6,7,1-ij]quinoline]]	55%		
CCC1(C)CCN2CCNCc3cccc1c32.O=C(O)C(F)(F)F (single isomer, unassigned) [Example 54, One enantiomer of 8-ethyl-8-methyl-2,3,4,6,7,8-hexahydro-1H-[1,4]diazepino[6,7,1-ij]-quinoline, trifluoroacetic acid]	24%	6.00 to 6.70	
CCC1(C)CCN2CCNCc3cccc1c32.O=C(O)C(F)(F)F (single isomer, unassigned) [Example 55, Other enantiomer of 8-ethyl-8-methyl-2,3,4,6,7,8-hexahydro-1H-[1,4]diazepino[6,7,1-ij]quinoline, trifluoroacetic acid]	26%	6.00 to 6.70	
CC1(C)CCN2CCNCc3cccc1c32 [Example 1, 8,8-Dimethyl-2,3,4,6,7,8-hexahydro-1H-[1,4]diazepino[6,7,1-ij]quinoline]			71%
c1cc2c3c(c1)C1(CCCC1)CCN3CCNC2 [Example 6, 1,2,3,4,6,7-Hexahydrospiro[[1,4]diazepino [6,7,1-ij]quinoline-8,1′-cyclopentane]]			63%
c1cc2c3c(c1)N1CCC[C@@H]1CN3CCNC2 [Example 16, (R)-5,6,7,9,9a,10,11,12-Octahydro-4H-[1,4]diazepino[1,7,6-de]pyrrolo[1,2-a]quinoxaline (2,2,2-trifluoroacetate)]			55%
c1cc2c3c(c1)N1CCC[C@H]1CN3CCNC2 [Example 17, (S)-5,6,7,9,9a,10,11,12-Octahydro-4H-[1,4]diazepino[1,7,6-de]pyrrolo[1,2-a]quinoxaline (2,2,2-trifluoroacetate)]			84%
CC1(C)CCN2CCNCc3cc(Cl)cc1c32 [Example 19, 10-Chloro-8,8-dimethyl-2,3,4,6,7,8-hexahydro-1H-[1,4]diazepino [6,7,1-ij]quinoline (2,2,2-trifluoroacetate)]			25%
CC1(C)CCN2CCNCc3ccc(F)c1c32 [Example 22, 9-Fluoro-8,8-dimethyl-2,3,4,6,7,8-hexahydro-1H-[1,4]diazepino[6,7,1-ij]quinoline]			69%
c1cc2c3c(c1)C1(CCC1)CCN3CCNC2 [Example 25, 1′,2′,3′,4′,6′,7′-Hexahydrospiro[cyclobutane-1,8′-[1,4]diazepino [6,7,1-ij]quinoline], hydrochloride]			90%
Fc1ccc2c3c1C1(CCC1)CCN3CCNC2 [Example 26, 9′-Fluoro-1′,2′,3′,4′,6′,7′-hexahydrospiro[cyclobutane-1,8′-[1,4]diazepino[6,7,1-ij]quinoline], hydrochloride]			107%
c1cc2c3c(c1)N(C1CCC1)CCN3CCNC2 [Example 33, 1-Cyclobutyl-2,3,5,6,7,8-hexahydro-1H-[1,4]diazepino[1,7,6-de]quinoxaline 2,2,2-trifluoroacetate]		6.00 to 6.70	78%
c1cc2c3c(c1)N(C1COC1)CCN3CCNC2 [Example 35, 1-(Oxetan-3-yl)-2,3,5,6,7,8-hexahydro-1H-[1,4]diazepino[1,7,6-de]quinoxaline 2,2,2-trifluoroacetate]		6.70 to 7.70	112%
c1cc2c3c(c1)N(CC1CC1)CCN3CCNC2 [Example 36, 1-(Cyclopropylmethyl)-2,3,5,6,7,8-hexahydro-1H-[1,4]diazepino[1,7,6-de]quinoxaline]		6.00 to 6.70	31%
c1cc2c3c(c1)N(CC1CCCC1)CCN3CCNC2 [Example 37, 1-(Cyclopentylmethyl)-2,3,5,6,7,8-hexahydro-1H-[1,4]diazepino[1,7,6-de]quinoxaline]		6.00 to 6.70	21%
c1cc2c3c(c1)N(C1CC1)CCN3CCNC2 [Example 40, 1-Cyclopropyl-2,3,5,6,7,8-hexahydro-1H-[1,4]diazepino[1,7,6-de]quinoxaline]		6.70 to 7.70	131%
c1cc2c3c(c1)N(C1CCCC1)CCN3CCNC2 [Example 41, 1-Cyclopentyl-2,3,5,6,7,8-hexahydro-1H-[1,4]diazepino[1,7,6-de]quinoxaline]		6.00 to 6.70	75%
CC1CNCc2cccc3c2N1CCN3C1CC1 (stereo not shown) [Example 42, 1-Cyclopropyl-5-methyl-2,3,5,6,7,8-hexahydro-1H-[1,4]diazepino[1,7,6-de]quinoxaline]		> 7.70	163%
CC1CNCc2cccc3c2N1CCN3C1CCCC1 (stereo not shown) [Example 43, 1-Cyclopentyl-5-methyl-2,3,5,6,7,8-hexahydro-1H-[1,4]diazepino[1,7,6-de]quinoxaline]		6.00 to 6.70	59%
c1cc2c3c(c1)N1CCCCCC1CN3CCNC2 (stereo not shown) [Example 44, 5,6,7,9,9a,10,11,12,13,14-decahydro-4H-azepino[1,2-a][1,4]diazepino[1,7,6-de]quinoxaline]		6.70 to 7.70	55%
CC1CNCc2cccc3c2N1CC1CCCN31 (stereo not shown) [Example 45, 7-Methyl-5,6,7,9,9^a,10,11,12-octahydro-4H-[1,4]diazepino[1,7,6-de]pyrrolo[1,2-a]quinoxaline]		6.70 to 7.70	77%
CC1CNCc2ccc(F)c3c2N1CC1CCCN31 (stereo not shown) [Example 46, 1-Fluoro-7-methyl-5,6,7,9,9^a,10,11,12-octahydro-4H-[1,4]diazepino[1,7,6-de]pyrrolo[1,2-a]quinoxaline]		6.00 to 6.70	71%
c1cc2c3c(c1)C1(CCN3CCNC2)CC1 [Example 47, 1,2,3,4,6,7-Hexahydrospiro[[1,4]diazepino[6,7,1-ij]quinoline-8,1′-cyclopropane]]		6.70 to 7.70	59%
CC1CNCc2cccc3c2N1CCC31CC1 (stereo not shown) [Example 48, 4-Methyl-1,2,3,4,6,7-hexahydrospiro[[1,4]diazepino[6,7,1-ij]quinoline-8,1′-cyclopropane]]		6.70 to 7.70	105%
CC1(C)CCN2CCNCc3c(F)ccc1c32 [Example 49, 11-Fluoro-8,8-Dimethyl-2,3,4,6,7,8-hexahydro-1H-[1,4]diazepino[6,7,1-ij]quinoline]		6.00 to 6.70	78%
CC1CNCc2cccc3c2N1CCC3(C)C (stereo not shown) [Example 51, 4,8,8-Trimethyl-2,3,4,6,7,8-hexahydro-1H-[1,4]diazepino[6,7,1-ij]quinoline 2,2,2-trifluoroacetate]		6.70 to 7.70	102%
